Measured values taken from patent US6166290A, “Glutathione-S-conjugate transport in plants” (The Trustees of the University of Pennsylvania, priority 1997, dated 2000).
Where “and” joins values, the source holds several entries; their conditions need not be identical. Equal values may be shown once. Read-outs that look alike come from different tables or passages of the source.

What was measured:
[1] = target: T1, YCF1 (vacuolar membrane vesicles purified from DTY165 cells) (Saccharomyces cerevisiae, UniProt P39109); assay: [3H]DNP-GS uptake by vacuolar membrane vesicles purified from DTY165 cells; assay type: biochemical
T1 construct: endogenous in cells; host or cells: S. cerevisiae DTY165 (wild type YCF1), vacuolar membrane vesicles
T1 sequence (P39109 whole entry): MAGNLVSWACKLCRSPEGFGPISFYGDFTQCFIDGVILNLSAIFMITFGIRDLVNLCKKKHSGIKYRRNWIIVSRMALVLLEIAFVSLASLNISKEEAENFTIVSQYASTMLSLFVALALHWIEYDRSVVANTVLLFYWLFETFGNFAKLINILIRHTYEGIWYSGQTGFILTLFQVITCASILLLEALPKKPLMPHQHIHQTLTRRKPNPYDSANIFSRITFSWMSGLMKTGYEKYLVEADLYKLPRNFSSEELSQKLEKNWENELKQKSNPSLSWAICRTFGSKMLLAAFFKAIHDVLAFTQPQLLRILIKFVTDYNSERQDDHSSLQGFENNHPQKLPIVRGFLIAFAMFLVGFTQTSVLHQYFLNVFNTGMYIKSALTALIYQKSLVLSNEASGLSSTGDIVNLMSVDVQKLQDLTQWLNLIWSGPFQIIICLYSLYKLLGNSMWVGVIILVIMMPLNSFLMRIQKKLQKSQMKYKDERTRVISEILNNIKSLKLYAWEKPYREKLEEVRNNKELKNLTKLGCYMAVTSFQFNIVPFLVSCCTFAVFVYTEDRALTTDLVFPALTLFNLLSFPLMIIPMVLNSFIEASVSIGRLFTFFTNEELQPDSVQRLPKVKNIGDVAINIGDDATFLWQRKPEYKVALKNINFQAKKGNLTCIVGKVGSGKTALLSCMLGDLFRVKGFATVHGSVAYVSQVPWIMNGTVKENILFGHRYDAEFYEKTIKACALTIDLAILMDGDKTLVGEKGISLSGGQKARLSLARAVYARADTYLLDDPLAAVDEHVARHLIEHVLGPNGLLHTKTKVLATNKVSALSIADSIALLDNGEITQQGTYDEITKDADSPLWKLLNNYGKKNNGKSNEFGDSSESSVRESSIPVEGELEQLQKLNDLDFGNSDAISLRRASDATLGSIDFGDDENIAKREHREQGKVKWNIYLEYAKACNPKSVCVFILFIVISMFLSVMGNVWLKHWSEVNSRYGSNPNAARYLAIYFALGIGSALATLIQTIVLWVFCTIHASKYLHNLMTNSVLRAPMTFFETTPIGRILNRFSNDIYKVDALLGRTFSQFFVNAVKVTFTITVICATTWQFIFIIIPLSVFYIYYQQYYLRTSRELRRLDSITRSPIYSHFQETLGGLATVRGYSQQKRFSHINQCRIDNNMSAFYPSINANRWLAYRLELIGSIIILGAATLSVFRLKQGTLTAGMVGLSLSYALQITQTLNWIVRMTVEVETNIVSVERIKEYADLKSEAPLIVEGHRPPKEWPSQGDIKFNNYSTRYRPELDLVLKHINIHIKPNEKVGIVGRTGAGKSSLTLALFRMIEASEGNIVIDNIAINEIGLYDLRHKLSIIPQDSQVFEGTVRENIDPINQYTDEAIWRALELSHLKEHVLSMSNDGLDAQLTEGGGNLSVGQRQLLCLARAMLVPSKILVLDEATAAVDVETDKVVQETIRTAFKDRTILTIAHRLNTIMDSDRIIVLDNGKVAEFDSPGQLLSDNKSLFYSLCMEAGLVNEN
How it was run: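 ATP-dependent [3H]DNP-GS (66.2 μM) transport measured by filtration and scintillation counting of Ficoll-purified yeast vacuolar vesicles (DTY165 wild type; DTY167 ycf1Δ), 1–60 min at 25 °C in sorbitol/Tris-Mes pH 8.0 with 3 mM ATP, 3 mM MgSO4 and gramicidin-D. Nonenergized uptake without ATP/Mg2+.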

[2] = test system: vacuolar GS-X pump (vacuolar membrane vesicles, V. radiata hypocotyls); conditions: cited from earlier work
AtMRP1 = target: T2, AtMRP1 (Arabidopsis thaliana, UniProt Q9C8G9); assay: AtMRP1-dependent uptake by membrane vesicles from pYES3-AtMRP1-transformed DTY168 cells; assay type: biochemical
T2 construct: S. cerevisiae DTY168 (ycf1 null) vacuolar-enriched membrane vesicles
T2 sequence (Q9C8G9 whole entry): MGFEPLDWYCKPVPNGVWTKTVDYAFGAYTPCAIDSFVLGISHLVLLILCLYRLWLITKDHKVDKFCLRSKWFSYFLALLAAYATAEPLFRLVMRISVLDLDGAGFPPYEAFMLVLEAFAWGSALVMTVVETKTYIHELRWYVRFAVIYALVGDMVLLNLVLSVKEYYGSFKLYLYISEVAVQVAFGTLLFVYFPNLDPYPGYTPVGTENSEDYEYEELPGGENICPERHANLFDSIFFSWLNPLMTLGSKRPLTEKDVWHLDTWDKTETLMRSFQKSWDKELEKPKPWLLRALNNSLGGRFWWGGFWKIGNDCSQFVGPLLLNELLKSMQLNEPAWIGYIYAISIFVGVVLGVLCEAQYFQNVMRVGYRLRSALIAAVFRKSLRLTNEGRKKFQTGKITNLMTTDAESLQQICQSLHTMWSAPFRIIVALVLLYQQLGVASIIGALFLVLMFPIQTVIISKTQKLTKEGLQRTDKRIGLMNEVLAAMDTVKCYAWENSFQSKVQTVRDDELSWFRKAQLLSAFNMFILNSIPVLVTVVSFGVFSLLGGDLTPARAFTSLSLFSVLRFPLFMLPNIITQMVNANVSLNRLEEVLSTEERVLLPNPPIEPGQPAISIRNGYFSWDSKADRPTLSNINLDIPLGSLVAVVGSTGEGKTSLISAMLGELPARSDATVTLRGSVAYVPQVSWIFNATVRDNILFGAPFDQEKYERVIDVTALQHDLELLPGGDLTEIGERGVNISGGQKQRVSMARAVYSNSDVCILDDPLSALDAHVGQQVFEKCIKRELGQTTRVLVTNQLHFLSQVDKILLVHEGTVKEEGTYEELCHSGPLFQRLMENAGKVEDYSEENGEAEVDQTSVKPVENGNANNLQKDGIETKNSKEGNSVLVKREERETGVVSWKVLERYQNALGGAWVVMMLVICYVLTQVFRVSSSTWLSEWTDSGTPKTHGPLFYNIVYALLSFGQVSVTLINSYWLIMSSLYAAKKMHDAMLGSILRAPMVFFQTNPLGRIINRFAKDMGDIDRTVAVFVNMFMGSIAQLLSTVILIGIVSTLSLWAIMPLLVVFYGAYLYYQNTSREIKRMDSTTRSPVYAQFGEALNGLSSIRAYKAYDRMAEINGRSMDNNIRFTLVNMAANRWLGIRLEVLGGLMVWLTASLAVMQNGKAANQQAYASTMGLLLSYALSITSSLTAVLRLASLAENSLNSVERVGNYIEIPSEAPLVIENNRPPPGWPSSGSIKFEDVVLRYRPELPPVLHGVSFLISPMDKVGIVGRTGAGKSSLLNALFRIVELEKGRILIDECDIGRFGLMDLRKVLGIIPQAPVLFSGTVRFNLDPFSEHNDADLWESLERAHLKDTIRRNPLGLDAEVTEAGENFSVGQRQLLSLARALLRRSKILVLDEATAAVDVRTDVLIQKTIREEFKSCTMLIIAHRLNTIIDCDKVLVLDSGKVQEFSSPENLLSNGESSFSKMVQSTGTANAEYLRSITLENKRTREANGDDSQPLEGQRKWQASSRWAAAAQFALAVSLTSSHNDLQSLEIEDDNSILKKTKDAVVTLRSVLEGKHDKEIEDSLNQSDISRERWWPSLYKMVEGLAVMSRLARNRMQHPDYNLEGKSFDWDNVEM

[3] = test system: membrane vesicles purified from pYES3-transformed DTY168 cells; assay: DNP-GS uptake by membrane vesicles from pYES3 (empty vector)-transformed DTY168 cells; assay type: biochemical, Saccharomyces cerevisiae
Method: S. cerevisiae strain DTY168 (MATα his6, leu2-3, -112, ura3-52 ycf1::hisG) was transformed with pYES3-AtMRP1 or empty vector lacking the AtMRP1 insert (pYES3) by the LiOAc/PEG method (Giest et al., 1991, Yeast 7:253-263) and selected for uracil prototrophy by plating on AHC medium containing tryptophan (Kim et al., 1994, supra).
For the preparation of membrane vesicles, 15 ml volumes of stationary phase cultures of the transformants were diluted into 1 L of fresh AHC medium and grown to an OD600 nm of about 1.2. Membrane vesicles were purified as described herein and in Kim et al. (1995, supra).
DNP-GS uptake was measured as described herein in 200 μl reaction volumes containing 3 mM ATP, 3 mM MgSO4, 5 μM gramicidin-D, 10 mM creatine phosphate, 16 units/ml creatine kinase, 50 mM KCl, 1 mg/ml BSA, 400 mM sorbitol, 25 mM Tris-Mes (pH 8.0) and the indicated concentrations of [^3 H]DNP-GS (17.4 mCi/mmol).

[4] = test system: vacuolar membrane vesicles purified from Beta vulgaris storage root; conditions: cited from earlier work
[5] = test system: vacuolar membrane vesicles purified from Arabidopsis leaf / root; conditions: cited from earlier work

N[C@@H](CCC(=O)N[C@@H](CSc1ccc([N+](=O)[O-])cc1[N+](=O)[O-])C(=O)NCC(=O)O)C(=O)O [DNP-GS, S-(2,4-dinitrophenyl)glutathione]
Vmax(DNP-GS) of MgATP-dependent uncoupler-insensitive uptake ([1]; 3 mM MgATP, 5 μM gramicidin D): 51.0±16.3 nmol/mg/10 minutes and 51.0±6.3 nmol/mg/10 minutes | initial rate of DNP-GS uptake ([1]; 3 mM MgATP, 66.2 μM DNP-GS): 12.2 nmol/mg/min | DNP-GS uptake, control ([1]; Table 1: 66.2 μM DNP-GS, 3 mM MgATP, no addition): 77.7 ± 1.0 nmol/mg/10 minutes | MgATP-dependent, uncoupler-insensitive DNP-GS uptake, control ([1]; Table 2: 5 μM gramicidin D, no compound): 47.9 ± 2.5 nmol/mg/10 minutes | MgATP-dependent, uncoupler-insensitive DNP-GS uptake, vacuolar membrane ([1]; Table 4, vacuolar membrane vesicles from DTY165 cells): 69.9 ± 1.0 nmol/mg/10 min | MgATP-dependent, uncoupler-insensitive DNP-GS uptake, crude microsomes ([1]; crude microsomes from DTY165 cells): 2.5 ± 0.3 nmol/mg/10 min | rate of MgATP-dependent, uncoupler-insensitive DNP-GS uptake ([2]; Vigna radiata hypocotyl): 5.8 nmol/mg/20 minutes | Km estimated previously in this system [2]: 80 µM | Vmax of GS-X pump ([2]; comparison value for DNP-GS): 12 nmol/mg/20 minutes | increase in DNP-GS uptake following introduction of plasmid borne AtMRP1 (AtMRP1): ca. 4 nmol/mg/20 minutes | initial rate of DNP-GS uptake (AtMRP1; 61.3 μM DNP-GS): 0.4 nmol/mg/min | Vmax for AtMRP1-dependent uptake (AtMRP1; MgATP-dependent, uncoupler-insensitive): 6.0±1.7 nmol/mg/10 min and 8.2±1.6 nmol/mg/10 min | initial rate of DNP-GS uptake ([3]; 61.3 μM DNP-GS): 0.1 nmol/mg/min | Km ([3]; read-out: apparent Km for DNP-GS uptake): > 500 µM | rate of MgATP-dependent, uncoupler-insensitive DNP-GS uptake [4]: 18.2 nmol/mg/20 minutes | rate of MgATP-dependent, uncoupler-insensitive DNP-GS uptake ([5]; Arabidopsis leaf): 2.3 nmol/mg/20 minutes | rate of MgATP-dependent, uncoupler-insensitive DNP-GS uptake ([5]; Arabidopsis root): 3.8 nmol/mg/20 minutes
